Earlier results as cited in patent US20040033957A1, “FAP-activated anti-tumor prodrugs” (Boehringer Ingelheim Pharma GmbH & Co. KG, priority 2002, published 2004).
Where a SMILES comes first, the peptide text is derived from it. The star is where a group is joined. AFC = O=c1cc(C(F)(F)F)c2ccc(N*)cc2o1

Columns and labels:
[1] = test system: xenograft tumor; settings: mouse xenograft tumor models
[2] = directly in the circulation, humans
[3] = biological target: T1, FAPα dimers (Homo sapiens, UniProt Q12884); settings: membrane overlay assay
T1 sequence (Q12884 1-760): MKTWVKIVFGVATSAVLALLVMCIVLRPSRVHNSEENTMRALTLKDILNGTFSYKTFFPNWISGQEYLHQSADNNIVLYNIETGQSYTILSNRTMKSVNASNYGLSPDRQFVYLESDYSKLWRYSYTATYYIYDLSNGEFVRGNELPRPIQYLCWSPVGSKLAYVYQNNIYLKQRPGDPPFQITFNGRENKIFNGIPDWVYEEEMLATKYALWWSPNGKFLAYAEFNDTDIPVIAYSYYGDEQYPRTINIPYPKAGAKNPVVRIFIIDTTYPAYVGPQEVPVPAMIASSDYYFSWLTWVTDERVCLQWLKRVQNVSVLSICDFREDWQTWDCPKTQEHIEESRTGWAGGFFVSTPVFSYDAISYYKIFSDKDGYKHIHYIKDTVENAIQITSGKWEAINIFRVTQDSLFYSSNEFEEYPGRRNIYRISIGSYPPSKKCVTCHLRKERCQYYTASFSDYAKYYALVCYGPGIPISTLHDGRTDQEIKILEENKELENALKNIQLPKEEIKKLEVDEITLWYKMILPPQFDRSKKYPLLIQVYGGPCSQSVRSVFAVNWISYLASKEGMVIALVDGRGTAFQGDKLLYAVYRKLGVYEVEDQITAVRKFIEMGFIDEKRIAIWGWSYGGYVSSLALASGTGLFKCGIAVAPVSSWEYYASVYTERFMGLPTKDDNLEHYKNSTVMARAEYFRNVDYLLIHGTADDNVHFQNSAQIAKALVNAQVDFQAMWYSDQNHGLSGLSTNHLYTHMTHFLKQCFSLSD

| Compound | tolerability (humans) | myelosuppression (patients, correlated with AUC of released doxorubicin) | efficacy as compared to doxorubicin [1] | fraction of the prodrug metabolized to free doxorubicin [2] | cleavage by FAPα dimers [3] |
| --- | --- | --- | --- | --- | --- |
| COc1cccc2c1C(=O)c1c(O)c3c(c(O)c1C2=O)C[C@@](O)(C(=O)CO)C[C@@H]3O[C@H]1C[C@H](NC(=O)[C@@H](N)CC(C)C)[C@H](O)[C@H](C)O1 [N-L-leucyl-doxorubicin] | comparably poor tolerability | Myelosuppression was seen | improved efficacy | roughly half | – |
| NCCCC[C@H](N)C(=O)N1CCC[C@H]1C(=O)Nc1ccc2c(C(F)(F)F)cc(=O)oc2c1 [Lys-Pro-7-amino-4-trifluoromethyl coumarin] (H-Lys-Pro-{AFC}) | – | – | – | – | able to cleave |
| NCC(=O)N1CCC[C@H]1C(=O)Nc1ccc2c(C(F)(F)F)cc(=O)oc2c1 [Gly-Pro-7-amino-4-trifluoromethyl coumarin] (H-Gly-Pro-{AFC}) | – | – | – | – | able to cleave |
| C[C@H](N)C(=O)N1CCC[C@H]1C(=O)Nc1ccc2c(C(F)(F)F)cc(=O)oc2c1 [Ala-Pro-7-amino-4-trifluoromethyl coumarin] (H-Ala-Pro-{AFC}) | – | – | – | – | able to cleave |
